Data: PubChem BioAssay AID2060492 (Molecular Pharmacology Branch, DTP, NCI, 2025)
pIC50: −log10 of the molar value.

Test system: 695427-040-R-J1-PDC complex spheroids, viability percent T/C
Assay: Anticancer human tumor 695427-040-R-J1-PDC patient-derived colon adenocarcinoma cell line growth inhibition [GQUAD]
Details: for pIC50: curve of first compound; for viability, T/C: stronger effect = lower value
Outline: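 Viability of tumor cells grown as complex spheroids with endothelial and stromal cells, exposed to drug combinations. Top concentration at or near clinical Cmax (else 10 microM), diluted in half-log increments.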

[1] = second compound 0.0316 µM, first compound 0.0316 µM
[2] = second compound 0.0316 µM, first compound 0.1 µM
[3] = second compound 0.0316 µM, first compound 0.316 µM
[4] = second compound 0.0316 µM, first compound 1 µM
[5] = second compound 0.0316 µM, first compound 3.16 µM
[6] = second compound 0.0316 µM, first compound 10 µM
[7] = second compound 0.1 µM, first compound 0.0316 µM
[8] = second compound 0.1 µM, first compound 0.1 µM
[9] = second compound 0.1 µM, first compound 0.316 µM
[10] = second compound 0.1 µM, first compound 1 µM
[11] = second compound 0.1 µM, first compound 3.16 µM
[12] = second compound 0.1 µM, first compound 10 µM
[13] = second compound 0.316 µM, first compound 0.0316 µM
[14] = second compound 0.316 µM, first compound 0.1 µM
[15] = second compound 0.316 µM, first compound 0.316 µM
[16] = second compound 0.316 µM, first compound 1 µM
[17] = second compound 0.316 µM, first compound 3.16 µM
[18] = second compound 0.316 µM, first compound 10 µM
[19] = second compound 1 µM, first compound 0.0316 µM
[20] = second compound 1 µM, first compound 0.1 µM
[21] = second compound 1 µM, first compound 0.316 µM
[22] = second compound 1 µM, first compound 1 µM
[23] = second compound 1 µM, first compound 3.16 µM
[24] = second compound 1 µM, first compound 10 µM
[25] = second compound 3.16 µM, first compound 0.0316 µM
[26] = second compound 3.16 µM, first compound 0.1 µM
[27] = second compound 3.16 µM, first compound 0.316 µM
[28] = second compound 3.16 µM, first compound 1 µM
[29] = second compound 3.16 µM, first compound 3.16 µM
[30] = second compound 3.16 µM, first compound 10 µM
[31] = second compound 10 µM, first compound 0.0316 µM
[32] = second compound 10 µM, first compound 0.1 µM
[33] = second compound 10 µM, first compound 0.316 µM
[34] = second compound 10 µM, first compound 1 µM
[35] = second compound 10 µM, first compound 3.16 µM
[36] = second compound 10 µM, first compound 10 µM
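Also: spheroids exposed to compounds for seven days before readout.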

SMILES: C=CCn1c(=O)c2cnc(Nc3ccc(N4CCN(C)CC4)cc3)nc2n1-c1cccc(C(C)(C)O)n1 + CN(C)c1ccc(Nc2c3ccc(NC(=O)CCN4CCCC4)cc3nc3cc(NC(=O)CCN4CCCC4)ccc23)cc1
- pIC50 (second compound 0.0316 µM): < 5.00
- pIC50 (second compound 0.1 µM): < 5.00
- pIC50 (second compound 0.316 µM): < 5.00
- pIC50 (second compound 1 µM): < 5.00
- pIC50 (second compound 3.16 µM): 5.06
- pIC50 (second compound 10 µM): 5.28
- viability, T/C [1]: 104%
- viability, T/C [2]: 104%
- viability, T/C [3]: 87.5%
- viability, T/C [4]: 83.2%
- viability, T/C [5]: 66.6%
- viability, T/C [6]: 61.7%
- viability, T/C [7]: 97.8%
- viability, T/C [8]: 93.9%
- viability, T/C [9]: 93.2%
- viability, T/C [10]: 77.4%
- viability, T/C [11]: 71.2%
- viability, T/C [12]: 59.3%
- viability, T/C [13]: 101%
- viability, T/C [14]: 89.1%
- viability, T/C [15]: 85.9%
- viability, T/C [16]: 85.2%
- viability, T/C [17]: 72.8%
- viability, T/C [18]: 53.3%
- viability, T/C [19]: 95.5%
- viability, T/C [20]: 103%
- viability, T/C [21]: 81.9%
- viability, T/C [22]: 77.2%
- viability, T/C [23]: 66.9%
- viability, T/C [24]: 52.3%
- viability, T/C [25]: 95.2%
- viability, T/C [26]: 91.3%
- viability, T/C [27]: 87.9%
- viability, T/C [28]: 80.9%
- viability, T/C [29]: 63.8%
- viability, T/C [30]: 48.3%
- viability, T/C [31]: 91.6%
- viability, T/C [32]: 84.1%
- viability, T/C [33]: 82.3%
- viability, T/C [34]: 67.8%
- viability, T/C [35]: 56.4%
- viability, T/C [36]: 42%

SMILES: Cc1[nH]c2ccccc2c1CCNCc1ccc(/C=C/C(=O)NO)cc1 + CN(C)c1ccc(Nc2c3ccc(NC(=O)CCN4CCCC4)cc3nc3cc(NC(=O)CCN4CCCC4)ccc23)cc1
- pIC50 (second compound 0.0316 µM): < 6.50
- pIC50 (second compound 0.1 µM): < 6.50
- pIC50 (second compound 0.316 µM): < 6.50
- pIC50 (second compound 1 µM): < 6.50
- pIC50 (second compound 3.16 µM): < 6.50
- pIC50 (second compound 10 µM): < 6.50
- viability, T/C (second compound 0.0316 µM, first compound 0.000999 µM): 105%
- viability, T/C (second compound 0.0316 µM, first compound 0.00316 µM): 111%
- viability, T/C (second compound 0.0316 µM, first compound 0.00999 µM): 106%
- viability, T/C [1]: 101%
- viability, T/C (second compound 0.0316 µM, first compound 0.0999 µM): 106%
- viability, T/C [3]: 72.2%
- viability, T/C (second compound 0.1 µM, first compound 0.000999 µM): 119%
- viability, T/C (second compound 0.1 µM, first compound 0.00316 µM): 93.9%
- viability, T/C (second compound 0.1 µM, first compound 0.00999 µM): 112%
- viability, T/C [7]: 99.3%
- viability, T/C (second compound 0.1 µM, first compound 0.0999 µM): 97.3%
- viability, T/C [9]: 69.7%
- viability, T/C (second compound 0.316 µM, first compound 0.000999 µM): 98.2%
- viability, T/C (second compound 0.316 µM, first compound 0.00316 µM): 97.5%
- viability, T/C (second compound 0.316 µM, first compound 0.00999 µM): 95.2%
- viability, T/C [13]: 96.5%
- viability, T/C (second compound 0.316 µM, first compound 0.0999 µM): 105%
- viability, T/C [15]: 78.4%
- viability, T/C (second compound 1 µM, first compound 0.000999 µM): 97.8%
- viability, T/C (second compound 1 µM, first compound 0.00316 µM): 106%
- viability, T/C (second compound 1 µM, first compound 0.00999 µM): 98.8%
- viability, T/C [19]: 108%
- viability, T/C (second compound 1 µM, first compound 0.0999 µM): 98%
- viability, T/C [21]: 68%
- viability, T/C (second compound 3.16 µM, first compound 0.000999 µM): 93.4%
- viability, T/C (second compound 3.16 µM, first compound 0.00316 µM): 101%
- viability, T/C (second compound 3.16 µM, first compound 0.00999 µM): 101%
- viability, T/C [25]: 92.8%
- viability, T/C (second compound 3.16 µM, first compound 0.0999 µM): 86.8%
- viability, T/C [27]: 61.1%
- viability, T/C (second compound 10 µM, first compound 0.000999 µM): 87.5%
- viability, T/C (second compound 10 µM, first compound 0.00316 µM): 85.9%
- viability, T/C (second compound 10 µM, first compound 0.00999 µM): 94.7%
- viability, T/C [31]: 82.6%
- viability, T/C (second compound 10 µM, first compound 0.0999 µM): 91.1%
- viability, T/C [33]: 61.1%

SMILES: O=C(NO)c1cnc(N2CCN(S(=O)(=O)c3ccc4ccccc4c3)CC2)nc1 + CN(C)c1ccc(Nc2c3ccc(NC(=O)CCN4CCCC4)cc3nc3cc(NC(=O)CCN4CCCC4)ccc23)cc1
- pIC50 (second compound 0.0316 µM): 6.37
- pIC50 (second compound 0.1 µM): 6.34
- pIC50 (second compound 0.316 µM): 6.37
- pIC50 (second compound 1 µM): 6.40
- pIC50 (second compound 3.16 µM): 6.35
- pIC50 (second compound 10 µM): 6.44
- viability, T/C [1]: 98.9%
- viability, T/C [2]: 93.1%
- viability, T/C [3]: 66.5%
- viability, T/C [4]: 4.08%
- viability, T/C [5]: 0.2%
- viability, T/C [6]: 0.24%
- viability, T/C [7]: 107%
- viability, T/C [8]: 91.7%
- viability, T/C [9]: 72.4%
- viability, T/C [10]: 3.81%
- viability, T/C [11]: 0.24%
- viability, T/C [12]: 0.42%
- viability, T/C [13]: 100%
- viability, T/C [14]: 101%
- viability, T/C [15]: 67.1%
- viability, T/C [16]: 3.52%
- viability, T/C [17]: 0.21%
- viability, T/C [18]: 0.44%
- viability, T/C [19]: 97.1%
- viability, T/C [20]: 87.9%
- viability, T/C [21]: 62.3%
- viability, T/C [22]: 3.42%
- viability, T/C [23]: 0.2%
- viability, T/C [24]: 0.29%
- viability, T/C [25]: 90.7%
- viability, T/C [26]: 89.5%
- viability, T/C [27]: 70%
- viability, T/C [28]: 3.74%
- viability, T/C [29]: 0.28%
- viability, T/C [30]: 0.31%
- viability, T/C [31]: 84%
- viability, T/C [32]: 84.4%
- viability, T/C [33]: 56.8%
- viability, T/C [34]: 3.35%
- viability, T/C [35]: 0.35%
- viability, T/C [36]: 0.32%

SMILES: COc1ccc([C@@H](O)c2cc(-c3ncnc4cc(N5CCOCC5)ccc34)c(F)cc2Cl)nn1 + Cc1[nH]c2ccc(F)cc2c1-c1nc2c3cccnc3c3ncccc3c2[nH]1
- pIC50 (second compound 0.0316 µM): 5.44
- pIC50 (second compound 0.1 µM): < 5.00
- pIC50 (second compound 0.316 µM): < 5.00
- pIC50 (second compound 1 µM): 5.02
- pIC50 (second compound 3.16 µM): 5.26
- pIC50 (second compound 10 µM): 5.37
- viability, T/C [1]: 105%
- viability, T/C [2]: 82.6%
- viability, T/C [3]: 80.9%
- viability, T/C [4]: 50.7%
- viability, T/C [5]: 58.2%
- viability, T/C [6]: 40.8%
- viability, T/C [7]: 103%
- viability, T/C [8]: 81.3%
- viability, T/C [9]: 83.5%
- viability, T/C [10]: 56.6%
- viability, T/C [11]: 72.1%
- viability, T/C [12]: 46.7%
- viability, T/C [13]: 90.7%
- viability, T/C [14]: 89.8%
- viability, T/C [15]: 80.3%
- viability, T/C [16]: 72%
- viability, T/C [17]: 71.5%
- viability, T/C [18]: 51.2%
- viability, T/C [19]: 74.2%
- viability, T/C [20]: 78.5%
- viability, T/C [21]: 83.9%
- viability, T/C [22]: 68.9%
- viability, T/C [23]: 73.9%
- viability, T/C [24]: 48.9%
- viability, T/C [25]: 64.1%
- viability, T/C [26]: 85.6%
- viability, T/C [27]: 72.9%
- viability, T/C [28]: 58.1%
- viability, T/C [29]: 66.6%
- viability, T/C [30]: 36.4%
- viability, T/C [31]: 74%
- viability, T/C [32]: 65.4%
- viability, T/C [33]: 82.8%
- viability, T/C [34]: 60.6%
- viability, T/C [35]: 55.5%
- viability, T/C [36]: 38.7%
